{"source": "paper PMC7433010", "about": "“Exploration of multi‐target effects of 3‐benzoyl‐5‐hydroxychromen‐2‐one in Alzheimer’s disease cell and mouse models” (Aging Cell, 2020)", "key": {"[1]": {"test_system": "∆K280 TauRD‐DsRed‐expressing SH‐SY5Y cells", "test": "Neurite outgrowth analysis in ∆K280 TauRD‐DsRed SH‐SY5Y cells", "format": "cell-based, human", "details": "1 µM", "method": "On day 1, ∆K280 TauRD-DsRed-expressing SH-SY5Y cells were seeded on a 24-well plate in a density of 3 × 10^4 cells/well, with 10 µM retinoic acid (Sigma-Aldrich) added to induce neuronal differentiation. On the second day, the cells were treated with licochalcone A (1 µM), LM-031 (1 µM), or congo red (10 µM) for 8 h and ∆K280 TauRD-DsRed expression was induced as described. After seven days, the cells were washed with phosphate-buffered saline (PBS) and fixed in 4% paraformaldehyde in PBS for 15 min. After permeabilized with 0.1% Triton X-100 in PBS for 10 min and blocked by 3% BSA in PBS for 20 min, cells were stained with primary neuronal class III β-tubulin (TUBB3) antibody (1:1000; Covance, Princeton, NJ, USA) at 4°C overnight and secondary anti-rabbit Alexa Fluor ®555 antibody (1:1000; Invitrogen) at room temperature for 3 h. After nuclei were stained with DAPI for 30 min, neuronal images were captured using the high-content imaging system as described and analyzed using the Neurite Outgrowth Application Module (Molecular Devices).\nTo knock down CREB expression in ∆K280 TauRD-DsRed SH-SY5Y cells, lentiviral short hairpin RNA (shRNA) targeting CREB (TRCN0000226466), NRF2 (TRCN0000007558), and a negative control scrambled (TRC2.Void) were obtained from National RNAi Core Facility, IMB/GRC, Academia Sinica, Taipei, Taiwan. On day 1, cells were plated on 6-well plates (for protein analysis) or 24-well plates (for neurite outgrowth analysis) in the presence of retinoic acid as described. On the second day, the cells were infected with lentivirus (multiplicity of infection: 3) in medium with polybrene (8 µg/mL; Sigma-Aldrich). On day 3, the culture medium was changed and the cells were pretreated with LM-031 (1 µM) for 8 h, followed by induction of ∆K280 TauRD-DsRed expression. On day 9, the cells were collected for NRF2, CREB, pCREB, and cleaved CASP3 protein analysis or analyzed for neurite outgrowth as described."}, "NQO1": {"test_system": "NQO1", "test": "Western blot of NQO1 in ∆K280 TauRD‐DsRed SH‐SY5Y cells", "format": "cell-based, human", "details": "1 µM; induced untreated 79%, uninduced 100%", "method": "(§1) Total proteins from ∆K280 TauRD-DsRed SH-SY5Y cells were obtained using a RIPA buffer containing 50 mM Tris-HCl (pH8.0), 150 mM NaCl, 2 mM EDTA (pH8.0), 50 mM NaF, 0.1% SDS, 0.5% sodium deoxycholate, 1% NP40, and a protease inhibitor cocktail (Sigma-Aldrich). After sonication and sitting on ice for 20 min, the lysates were centrifuged at 14,000 × g for 30 min at 4°C. Protein concentrations were determined using a protein assay kit (Bio-Rad, Hercules, CA, USA), with albumin as a standard. Total proteins (20 µg) were electrophoresed on 10% or 12% SDS-polyacrylamide gel and transferred onto polyvinylidene difluoride (PVDF) membranes (Sigma-Aldrich) through reverse electrophoresis. […] Subsequently, immune complexes were detected using a horseradish peroxidase-conjugated goat anti-mouse or goat anti-rabbit IgG antibody (1:5000; GeneTex, Irvive, CA, USA) and a chemiluminescent substrate (Millipore)."}, "GCLC": {"test_system": "GCLC", "test": "Western blot of GCLC in ∆K280 TauRD‐DsRed SH‐SY5Y cells", "format": "cell-based, human", "details": "1 µM; induced untreated 78%, uninduced 100%", "method": "as §1"}, "BDNF": {"test_system": "BDNF", "test": "Western blot of BDNF in ∆K280 TauRD‐DsRed SH‐SY5Y cells", "format": "cell-based, human", "details": "1 µM, uninduced 100%", "method": "as §1"}, "GADD45B": {"test_system": "GADD45B", "test": "Western blot of GADD45B in ∆K280 TauRD‐DsRed SH‐SY5Y cells", "format": "cell-based, human", "details": "1 µM; induced untreated 65%, uninduced 100%", "method": "as §1"}, "BAX": {"test_system": "BAX", "test": "Western blot of BAX in ∆K280 TauRD‐DsRed SH‐SY5Y cells", "format": "cell-based, human", "details": "induced untreated 120%, uninduced 100%", "method": "as §1"}, "pERK1/2 (T202/Y204)": {"test_system": "pERK1/2 (T202/Y204)", "test": "Western blot of pERK1/2 (T202/Y204) in ∆K280 TauRD‐DsRed SH‐SY5Y cells", "format": "cell-based, human", "details": "induced untreated 90%, uninduced 100%", "method": "as §1\nFigure S4. ΔK280 TauRD-DsRed SH-SY5Y cells. […] On day 9, neurite outgrowth and caspase 3 activity were measured. In addition, expression of HSPB1, NRF2, and CREB pathways were assessed. (b) Relative AKT, pAKT, ERK, and pERK protein levels analyzed through immunoblotting. […]"}, "sarkosyl‐insoluble Tau": {"test_system": "sarkosyl‐insoluble Tau", "test": "TEM of sarkosyl‐insoluble Tau from STZ‐treated 3 × Tg‐AD mice", "format": "in vivo, mouse", "details": "STZ/LM‐031 mice", "description": "Figure S7. Body weight, blood glucose, open field task, NeuN immunoreactivity, and TEM of sarkosyl-insoluble tau in STZ-treated 3×Tg-AD mice. (a) Body weight and blood glucose of the mice. […] (c) Representative IHC images for NeuN and intensity quantification in the hippocampus of mice. DG, dentate gyrus; CA1 and CA3, Cornu Ammonis areas 1 and 3. (d) TEM of sarkosyl-insoluble tau. p values, STZ vs. – STZ mice or STZ/LM-031 vs. STZ mice. *: p < 0.05, ^##: p < 0.01, ^##^#: p < 0.001. (one-way ANOVA with a post hoc Tukey test)"}, "[2]": {"test": "PAMPA‐BBB permeability assay"}}, "data": [{"smiles": "O=C(c1ccccc1)c1cc2c(O)cccc2oc1=O", "note": "[LM‐031, 3‐benzoyl‐5‐hydroxychromen‐2‐one]", "values": [{"measurement": "neurite length", "setting": "[1]; CREB‐specific shRNA‐infected cells, untreated 46 µm", "result": 51, "unit": "µm"}, {"measurement": "neurite length", "setting": "[1]; NRF2‐specific shRNA‐infected cells, untreated 42 µm", "result": 46, "unit": "µm"}, {"measurement": "neurite length", "setting": "[1]; scrambled shRNA‐infected cells, untreated 48 µm", "result": 53, "unit": "µm"}, {"measurement": "NQO1 protein level", "setting": "NQO1", "result": 94, "unit": "%"}, {"measurement": "GCLC protein level", "setting": "GCLC", "result": 120, "unit": "%"}, {"measurement": "BDNF protein level, 14 kDa", "setting": "BDNF; induced untreated 82%", "result": 155, "unit": "%"}, {"measurement": "BDNF protein level, 32 kDa", "setting": "BDNF; induced untreated 83%", "result": 101, "unit": "%"}, {"measurement": "GADD45B protein level", "setting": "GADD45B", "result": 111, "unit": "%"}, {"measurement": "BAX expression", "setting": "BAX", "result": 76, "unit": "%"}, {"measurement": "pERK1/2 (T202/Y204) expression level", "setting": "pERK1/2 (T202/Y204)", "result": 117, "unit": "%"}, {"measurement": "sarkosyl‐insoluble Tau aggregates by TEM", "setting": "sarkosyl‐insoluble Tau", "result": "reduced Tau aggregates"}, {"measurement": "Papp at 18 h, 1 µM", "setting": "[2]", "result": "4.8 ± 0.12", "unit": "×10⁻⁶ cm/s"}]}]}
